The text below walks through data of ChEMBL document CHEMBL1134698 (Bioorg Med Chem Lett, 2001).

Test [1] has as its target Monoamine transporters; serotonin & dopamine (Homo sapiens) (UniProt P31645+Q01959). As to the kind of experiment: Selectivity was measured as SERT/DAT. In kind it is protein assay.
Test [2] concerns the target Norepinephrine transporter (Rattus norvegicus, UniProt Q9WTR4). As to the kind of experiment: Binding affinity was evaluated by measuring inhibiting the binding of [3H]nisoxetine to Norepinephrine transporter in rat brain tissue. In kind it is tissue-based.
For the next test, the species on record is Rattus norvegicus. As to the kind of experiment: Inhibition of [3H]dopamine reuptake in rat […]. In kind it is functional.
The target of test [3] is Sodium-dependent serotonin transporter (Rattus norvegicus, UniProt P31652). Briefly: Binding affinity was evaluated by measuring inhibiting the binding of [3H]citalopram to Serotonin transporter in rat brain tissue. It is filed as tissue-based.
Test [4] addresses Sodium-dependent dopamine transporter (Rattus norvegicus, UniProt P23977). As to the kind of experiment: Binding affinity was evaluated by measuring the inhibition of [3H]WIN-35428 binding to Dopamine transporter in rat brain tissue. In kind it is tissue-based.

Chain of Monoamine transporters; serotonin & dopamine (Homo sapiens) (P31645 whole entry, looked up): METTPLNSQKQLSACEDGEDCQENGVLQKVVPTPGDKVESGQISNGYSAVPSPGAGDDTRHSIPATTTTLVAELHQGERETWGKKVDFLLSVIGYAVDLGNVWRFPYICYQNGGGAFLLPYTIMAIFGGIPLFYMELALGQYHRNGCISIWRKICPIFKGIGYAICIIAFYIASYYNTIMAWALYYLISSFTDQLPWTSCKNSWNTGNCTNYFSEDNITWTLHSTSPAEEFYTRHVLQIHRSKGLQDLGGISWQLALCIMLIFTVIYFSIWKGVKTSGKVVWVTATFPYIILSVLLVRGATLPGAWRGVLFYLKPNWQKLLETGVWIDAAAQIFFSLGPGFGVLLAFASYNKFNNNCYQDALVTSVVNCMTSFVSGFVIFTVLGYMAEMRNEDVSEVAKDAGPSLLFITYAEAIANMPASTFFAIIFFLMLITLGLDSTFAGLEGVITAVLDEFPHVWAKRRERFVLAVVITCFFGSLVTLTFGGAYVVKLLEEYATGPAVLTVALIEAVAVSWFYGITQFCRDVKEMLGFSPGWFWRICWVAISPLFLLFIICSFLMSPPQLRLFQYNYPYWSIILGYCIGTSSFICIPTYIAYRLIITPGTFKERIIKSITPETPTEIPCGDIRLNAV
Chain of Monoamine transporters; serotonin & dopamine (Homo sapiens) (Q01959 whole entry, looked up): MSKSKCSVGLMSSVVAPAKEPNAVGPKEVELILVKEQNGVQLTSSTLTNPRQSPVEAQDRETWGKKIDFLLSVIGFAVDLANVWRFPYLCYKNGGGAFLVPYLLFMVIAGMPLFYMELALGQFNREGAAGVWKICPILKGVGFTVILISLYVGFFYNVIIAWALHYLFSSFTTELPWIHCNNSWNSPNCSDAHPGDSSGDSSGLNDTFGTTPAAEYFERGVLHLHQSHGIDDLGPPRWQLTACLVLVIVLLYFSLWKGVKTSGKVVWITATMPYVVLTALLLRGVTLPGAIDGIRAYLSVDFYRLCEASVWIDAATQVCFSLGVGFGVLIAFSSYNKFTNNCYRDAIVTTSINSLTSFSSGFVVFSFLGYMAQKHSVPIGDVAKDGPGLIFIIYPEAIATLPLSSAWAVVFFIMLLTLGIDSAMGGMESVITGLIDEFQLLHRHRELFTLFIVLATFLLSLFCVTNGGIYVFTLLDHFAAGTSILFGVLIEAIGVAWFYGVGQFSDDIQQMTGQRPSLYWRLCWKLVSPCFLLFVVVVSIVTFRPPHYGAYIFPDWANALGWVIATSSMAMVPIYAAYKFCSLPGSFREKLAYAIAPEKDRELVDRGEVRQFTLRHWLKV
Chain of Norepinephrine transporter (Q9WTR4 whole entry): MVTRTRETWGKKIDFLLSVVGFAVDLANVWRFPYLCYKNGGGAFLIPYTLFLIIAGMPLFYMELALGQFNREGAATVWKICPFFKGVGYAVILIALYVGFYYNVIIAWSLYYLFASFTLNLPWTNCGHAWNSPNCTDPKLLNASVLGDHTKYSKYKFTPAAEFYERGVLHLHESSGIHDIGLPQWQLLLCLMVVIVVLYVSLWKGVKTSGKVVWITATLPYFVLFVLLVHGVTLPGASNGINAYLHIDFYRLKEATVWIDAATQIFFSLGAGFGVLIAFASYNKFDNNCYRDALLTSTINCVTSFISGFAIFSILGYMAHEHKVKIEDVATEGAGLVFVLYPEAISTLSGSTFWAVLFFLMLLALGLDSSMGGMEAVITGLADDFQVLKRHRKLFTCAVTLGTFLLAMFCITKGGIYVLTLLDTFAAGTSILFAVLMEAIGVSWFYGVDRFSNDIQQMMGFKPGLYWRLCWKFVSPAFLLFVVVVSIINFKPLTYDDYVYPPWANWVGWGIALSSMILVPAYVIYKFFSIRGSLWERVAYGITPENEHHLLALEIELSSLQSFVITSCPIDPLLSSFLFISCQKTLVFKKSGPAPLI
Chain of Sodium-dependent serotonin transporter (P31652 whole entry): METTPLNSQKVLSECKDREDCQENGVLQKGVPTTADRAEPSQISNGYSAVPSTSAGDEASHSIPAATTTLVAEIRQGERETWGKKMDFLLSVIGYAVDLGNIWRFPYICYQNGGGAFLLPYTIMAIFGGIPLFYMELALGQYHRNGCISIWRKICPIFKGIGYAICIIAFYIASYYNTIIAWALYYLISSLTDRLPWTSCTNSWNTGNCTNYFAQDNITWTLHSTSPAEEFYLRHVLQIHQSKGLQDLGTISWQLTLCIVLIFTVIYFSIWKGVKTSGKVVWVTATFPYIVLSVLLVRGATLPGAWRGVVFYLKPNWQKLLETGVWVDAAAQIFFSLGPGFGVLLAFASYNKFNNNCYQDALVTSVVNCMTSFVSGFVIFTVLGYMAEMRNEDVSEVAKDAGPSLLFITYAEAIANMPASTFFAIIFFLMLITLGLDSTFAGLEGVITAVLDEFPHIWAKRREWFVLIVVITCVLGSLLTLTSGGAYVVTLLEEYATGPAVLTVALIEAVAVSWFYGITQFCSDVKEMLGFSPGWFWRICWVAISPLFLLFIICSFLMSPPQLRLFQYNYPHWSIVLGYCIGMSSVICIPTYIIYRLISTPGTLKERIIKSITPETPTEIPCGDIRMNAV
Chain of Sodium-dependent dopamine transporter (P23977 whole entry): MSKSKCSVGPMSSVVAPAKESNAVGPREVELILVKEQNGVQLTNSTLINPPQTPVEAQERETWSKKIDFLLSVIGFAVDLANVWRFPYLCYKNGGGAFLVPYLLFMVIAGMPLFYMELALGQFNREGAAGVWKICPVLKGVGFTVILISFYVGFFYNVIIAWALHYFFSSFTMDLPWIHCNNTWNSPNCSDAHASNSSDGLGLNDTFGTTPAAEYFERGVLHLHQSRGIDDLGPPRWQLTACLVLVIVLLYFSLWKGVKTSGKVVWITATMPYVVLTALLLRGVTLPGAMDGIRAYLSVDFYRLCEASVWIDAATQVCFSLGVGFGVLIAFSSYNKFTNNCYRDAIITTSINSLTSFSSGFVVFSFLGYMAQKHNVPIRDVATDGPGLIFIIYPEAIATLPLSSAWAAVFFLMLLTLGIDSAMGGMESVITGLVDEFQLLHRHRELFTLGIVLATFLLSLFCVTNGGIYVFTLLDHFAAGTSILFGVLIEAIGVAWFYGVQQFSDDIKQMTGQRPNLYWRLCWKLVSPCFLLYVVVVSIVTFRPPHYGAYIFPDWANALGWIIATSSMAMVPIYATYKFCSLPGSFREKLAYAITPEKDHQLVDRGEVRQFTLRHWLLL

In turn, `Fc1ccc(CN2CCC(CNCC(c3ccccc3)c3ccccc3)CC2)cc1` registered a Selectivity in test [1] of 6.9.

The IC50 is the concentration needed to halve the response being measured. Read a high IC50 as weaker potency in that assay. In the case of `Fc1ccc(CNC2CCC(C(c3ccccc3)c3ccccc3)NC2)cc1` (cis isomer) [listing 1 of 2 here], the IC50 in test [2] was found to be 1.35 µM; in the test filed under Rattus norvegicus, 0.0289 µM; in test [3], 2.81 µM.

Consider `Fc1ccc(CNC2CCC(C(c3ccccc3)c3ccccc3)NC2)cc1` (cis isomer) [listing 2 of 2 here], for which the Selectivity in test [1] was 93.7.

Regarding `O=C(NC1CCC(C(c2ccccc2)c2ccccc2)NC1)c1ccc(F)cc1` (racemic), the IC50 in test [4] worked out at 0.087 µM; in test [2] it was 5.61 µM; in test [3] it was 6.21 µM. In addition, in test [1], the Selectivity worked out at 71.4.

The compound `COC(=O)[C@@H]1C2CC[C@@H](C[C@@H]1OC(=O)c1ccccc1)N2C` (single isomer, unassigned) [COCAINE] returned a half-inhibitory concentration (IC50) in the test listed under Rattus norvegicus (Rattus norvegicus) of 0.191 µM.

For the compound `Fc1ccc(CNC2CCC(C(c3ccccc3)c3ccccc3)NC2)cc1` (stereo in doubt) [listing 1 of 2 here], the IC50 in test [4] was 0.0212 µM; in test [2], 4.47 µM; in the test filed under Rattus norvegicus, 0.106 µM; in test [3] it was 1.33 µM.

Consider `Fc1ccc(CNC2CCC(C(c3ccccc3)c3ccccc3)NC2)cc1` (stereo in doubt) [listing 2 of 2 here], for which, in test [1], the Selectivity came to 6.28.
